Experimental data reported in patent publication US7244557B2, “Method of screening modulators of Nod1 signaling” (Regents of the University of Michigan, priority 2003, dated 2007).

Molecular target: T1, NOD1 (Homo sapiens, UniProt Q9Y239)
T1 construct: expressed in transfected cells; host or cells: HEK293T
T1 sequence (Q9Y239 1-953): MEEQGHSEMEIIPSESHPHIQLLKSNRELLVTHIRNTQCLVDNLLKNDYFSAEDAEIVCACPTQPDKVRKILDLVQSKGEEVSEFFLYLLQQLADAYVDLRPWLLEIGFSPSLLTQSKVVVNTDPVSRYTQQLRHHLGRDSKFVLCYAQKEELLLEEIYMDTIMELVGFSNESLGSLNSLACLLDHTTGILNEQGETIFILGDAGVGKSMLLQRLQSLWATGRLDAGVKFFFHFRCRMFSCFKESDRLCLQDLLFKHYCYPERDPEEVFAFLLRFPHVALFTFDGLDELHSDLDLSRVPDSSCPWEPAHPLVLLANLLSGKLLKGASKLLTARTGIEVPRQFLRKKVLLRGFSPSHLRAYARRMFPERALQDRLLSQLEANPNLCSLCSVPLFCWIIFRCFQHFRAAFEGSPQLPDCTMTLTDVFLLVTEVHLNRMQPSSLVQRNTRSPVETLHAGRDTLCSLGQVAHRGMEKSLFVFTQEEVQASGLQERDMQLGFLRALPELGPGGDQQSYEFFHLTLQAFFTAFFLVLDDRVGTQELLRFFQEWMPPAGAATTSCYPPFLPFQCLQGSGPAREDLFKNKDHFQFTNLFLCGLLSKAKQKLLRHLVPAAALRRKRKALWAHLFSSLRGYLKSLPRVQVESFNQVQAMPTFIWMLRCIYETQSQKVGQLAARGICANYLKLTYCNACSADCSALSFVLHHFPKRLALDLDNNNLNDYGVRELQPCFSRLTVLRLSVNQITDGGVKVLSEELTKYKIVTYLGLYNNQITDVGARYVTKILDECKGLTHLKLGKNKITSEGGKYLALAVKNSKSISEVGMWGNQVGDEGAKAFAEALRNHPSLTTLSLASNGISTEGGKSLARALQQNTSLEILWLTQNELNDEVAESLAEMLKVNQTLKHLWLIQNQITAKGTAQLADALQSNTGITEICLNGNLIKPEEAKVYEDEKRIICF
Assay: NF-κB-dependent luciferase reporter assay, HEK293T cells expressing NOD1
Format: cell-based
Source text: Reagents. LPS from S. typhimurium, intact and alkaline-detoxified LPS from E. coli O55:B5 as well as purified lipid A preparations of E. coli F583, MDP, DAP and dsRNA were obtained from Sigma-Aldrich (St. Louis, Mo.). PGN from S. aureus was from Fluka-Chemie (Buchs, Germany). Palmitoyl-Cys ((RS)-2,3-di(palmitoyloxy)-propyl)-Ala-Gly) (sBLP), was obtained from Bachem (Torrance, Calif.). The tetrameric form of the disaccharide dipeptide was described previously (Inohara et al., J. Biol. Chem. 278:5509 [2003]). iE-DAP and iQ-DAP, M3P and M4P were synthesized as described (Kitaura et al., J. Med. Chem. 25:335 [1982]) with small modification. Purification of PGN from B. subtilis 168 and C. flaccumfaciens with hydrolases, Cellosyl or recombinant AtlE (amidase domain) and the fractionation and purification of reduced B. subtilis PGN digested with Cellosyl were performed as previously described (Heilman et al., Mol. Microbiol. 24:1013 [1997]; Atrih et al., J. Bact. 181:3956 [1999]). Removal of proteins and reduction of LPS fraction. E. coli O55:B5 LPS (Sigma) was treated with proteinase K at 37° C. for 12 hr to digest contaminating proteins. To eliminate lipoproteins, LPS was subjected to modified phenol extraction with deoxycholate-containing phenol as described (Hirschfeld et al., J. Immunol. 165:618 [2000]). For reduction of carboxyl group in the LPS, the LPS was treated with 1-ethyl-3-(3-dimethylaminopropyl) carbodiimide and then reduced with NaBH4 as described (Taylor et al., Biochemistry 11:1383 [1972]). Preparation of E. coli extract. E. coli K-12 mutants were all based on the SØ864 genetic background (lacZ trp upp relA rpsL) (Neuhard and Thomassen, J. Bacteriol. 126:999). SØ874 carries a large chromosomal deletion removing the gene clusters for the biosynthesis of CA capsule and O-antigen. CLM5 is a derivative of SØ874 with a transposon insertion in the wecC gene that blocks the synthesis of ECA (Marolda et al., J. Bacteriol. 177:5539[1995]). FAM5 is a derivative of SØ874 carrying a deletion that eliminates the incorporation of heptose in the LPS core. Extracts were prepared from all of these E. coli K-12 strains and also from another E. coli K-12 strain, LCD27 YA21-6 (Obtained from Dr. Arisaka, Tokyo Institute of Technology). Bacteria were cultured overnight at 37° C. in Luria broth, killed by treatment with acetone followed by vacuum drying and finally resuspended in 10 mM HEPES. The extract was treated with 1M NaOH at 55° C. for 12 hr and neutralized with 1M HEPES (pH 7.4). The soluble fraction after centrifugation and filtration with 0.22 μm filter was applied to SUPEROSE 12 gel filtration column chromatography. Partial purification of NOD1-stimulatory molecules from E. coli and composition analyses. The amino acid composition of E. coli O55:B5 LPS was determined using AccQ·Tag amino acid analysis system (Waters, Milford, Mass.) after hydrolysis at 110° C. for 24 hr. For carbohydrate analysis, E coli K-12 YA21-6 (Ref 26) cultured overnight at 37° C. in L-broth were washed with TBS twice and incubated with TBS containing 1 mglml DNase I, RNase I and lysozyme for 37° C. for 2 hr. Acetone was added to the extracts at 50% final concentration and the insoluble fractions were washed with an excess of 75% and 100% acetone. After vacuum drying, the acetone extract was solublized with 1 M NaOH and incubated at 60° C. for 24 hr. The pH was adjusted to pH 5.0 with acetic acid and the soluble fraction was passed through SUPEROSE gel filtration column. SUPEROSE fractions with NOD1-stimulatory activity were diluted with 10 mM Tris-HCl (pH 8.8) and subjected to UnoQ column chromatography. The fractions were eluted with a linear gradient of 0–300 mM NaCl. The positive fractions were dialyzed against water and dried under vacuum. The monosaccharide composition of the fractions after TFA/methanol degradation was determined as previously described (Forsberg et al., J. Biol. Chem. 273:2747[1998]). Transfection and NF-κB Activation Assay. […]

Substance	NOD1-dependent NF-κB activation (NOD1 stimulation)
γ-D-glutamy-meso-diaminopimelic acid [iE-DAP]	stimulated NOD1
γ-D-Gln-DAP [iQ-DAP]	stimulated NOD1
MurNAc-L-Ala-γ-D-Gln [MDP]	Neither MDP nor tetrameric forms of disaccharide dipeptide (4 mer) stimulated NOD1
Palmitoyl-Cys ((RS)-2,3-di(palmitoyloxy)-propyl)-Ala-Gly) [synthetic lipoprotein]	not NOD1
